Columns and labels:
[1] = tested on: SK-GT-4 (Esophageal Adenocarcinoma); assay: Bliss excess, mean over the matrix (fraction); higher = more synergy
Outline: (§1)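 Bliss excess equals the observed combination effect minus the expected value EA + EB − EA·EB, where EA and EB are the effects of each agent alone. Combination Emax is the second-highest inhibition within the matrix. Inhibition was scaled from CellTiter-Glo 2.0 luminescence, with 0 set by vehicle wells and 1 by blank wells, after 72 hours of two-drug dosing of cells plated in 1536-well plates.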

[2] = tested on: 8505C (Thyroid Gland Carcinoma); assay: combination Emax (second highest fraction inhibited in the dose matrix, 72 h); higher = more inhibition; extreme values may be limits of the assay
Outline: as §1

[3] = tested on: CHSA8926 (Chondrosarcoma); assay: as above
Outline: as §1

[4] = tested on: COR-L279 (Small Cell Lung Carcinoma); assay: as above
Outline: as §1

[5] = tested on: DMS-114 (Small Cell Lung Carcinoma); assay: as above
Outline: as §1

[6] = tested on: ESO51 (Esophageal Adenocarcinoma); assay: as above
Outline: as §1

[7] = tested on: HCC1187 (Breast Carcinoma); assay: as above
Outline: as §1

[8] = tested on: IM-95 (Gastric Carcinoma); assay: as above
Outline: as §1

[9] = tested on: KP-3 (Pancreatic Carcinoma); assay: as above
Outline: as §1

[10] = tested on: KY821 (Acute Myeloid Leukemia); assay: as above
Outline: as §1

[11] = tested on: MN-60 (B-Lymphoblastic Leukemia); assay: as above
Outline: as §1

[12] = tested on: NCI-H520 (Squamous Cell Lung Carcinoma); assay: as above
Outline: as §1

[13] = tested on: NCI-H661 (Non-Small Cell Lung Carcinoma); assay: as above
Outline: as §1

[14] = tested on: PC-3 (Prostate Carcinoma); assay: as above
Outline: as §1

[15] = tested on: SK-GT-4 (Esophageal Adenocarcinoma); assay: as above
Outline: as §1

[16] = tested on: SNU-398 (Hepatocellular Carcinoma); assay: as above
Outline: as §1

[17] = tested on: ST486 (Burkitt's Lymphoma); assay: as above
Outline: as §1

[18] = tested on: SU-DHL-5 (B-Cell Non-Hodgkin's Lymphoma); assay: as above
Outline: as §1

[19] = tested on: SUP-B15 (B-Lymphoblastic Leukemia); assay: as above
Outline: as §1

[20] = tested on: T-T (Esophageal Squamous Cell Carcinoma); assay: as above
Outline: as §1

Row | Structure (SMILES) | Bliss excess [1] | combination Emax [2] | combination Emax [3] | combination Emax [4] | combination Emax [5] | combination Emax [6] | combination Emax [7] | combination Emax [8] | combination Emax [9] | combination Emax [10] | combination Emax [11] | combination Emax [12] | combination Emax [13] | combination Emax [14] | combination Emax [15] | combination Emax [16] | combination Emax [17] | combination Emax [18] | combination Emax [19] | combination Emax [20]
1 | CN(CCO)CC[C@H](CSc1ccccc1)Nc1ccc(S(=O)(=O)NC(=O)c2ccc(N3CCC([C@@H](O)c4ccccc4-c4ccc(Cl)cc4)CC3)cc2)cc1S(=O)(=O)C(F)(F)F [AZD4320] + C=CCn1c(=O)c2cnc(Nc3ccc(N4CCN(C)CC4)cc3)nc2n1-c1cccc(C(C)(C)O)n1 [AZD1775] (first compound max 1 µM, partner max 1 µM) | -0.0438 | 0.187 | 0.852 | 1 | 0.373 | 0.775 | 0.549 | 0.791 | 0.314 | 1 | 0.292 | 0.76 | 0.613 | 0.204 | 0.349 | 0.739 | 1 | 1 | 1 | 0.523
2 | CC1(C)CCC(CN2CCN(c3ccc(C(=O)NS(=O)(=O)c4ccc(NCC5CCOCC5)c([N+](=O)[O-])c4)c(Oc4cnc5[nH]ccc5c4)c3)CC2)=C(c2ccc(Cl)cc2)C1 [Venetoclax] + Cc1cc2ncnn2cc1Nc1ncc2c(n1)n(C1CCOCC1)c(=O)n2C [AZD7648] (first compound max 1 µM, 7x7, partner max 10 µM) | -0.093 | 0.187 | 0.359 | 0.372 | 0.315 | 0.131 | 0.142 | 0.155 | 0.13 | 0.956 | 0.299 | 0.54 | 0.16 | 0.263 | 0.374 | 0.29 | 0.69 | 0.687 | 1 | 0.172
3 | Cc1c2c(nn1C)CSCc1cc(n(C)n1)CSc1cc(c3ccccc3c1)OCCCc1c(C(=O)O)n(C)c3c-2c(Cl)ccc13 [AZD5991] + C[C@@H](Nc1cc(F)cc(F)c1)c1cc(C(=O)N(C)C)cc2c(=O)cc(N3CCOCC3)oc12 [AZD8186] (first compound max 1 µM, 7x7, partner max 3 µM) | -0.0185 | 0.2 | 0.797 | 0.624 | 0.61 | 0.217 | 0.993 | 0.817 | 0.124 | 1 | 0.343 | 0.644 | 0.6 | 0.449 | 0.288 | 0.995 | 0.829 | 1 | 1 | 0.915
4 | COc1cccc2c1C(=O)c1c(O)c3c(c(O)c1C2=O)C[C@@](O)(C(=O)CO)C[C@@H]3O[C@H]1C[C@H](N)[C@H](O)[C@H](C)O1 [Doxorubicin] + Cc1cc2ncnn2cc1Nc1ncc2c(n1)n(C1CCOCC1)c(=O)n2C [AZD7648] (first compound max 1 µM, 7x7, partner max 10 µM) | -0.0081 | 0.846 | 0.701 | 1 | 0.551 | 0.611 | 0.724 | 0.7 | 0.152 | 0.983 | 0.833 | 0.771 | 0.753 | 0.431 | 0.593 | 0.595 | 0.955 | 1 | 0.987 | 0.624
5 | Cc1cc2ncnn2cc1Nc1ncc2c(n1)n(C1CCOCC1)c(=O)n2C [AZD7648] + CCN(CCO)CCCOc1ccc2c(Nc3cc(CC(=O)Nc4cccc(F)c4)[nH]n3)ncnc2c1 [AZD2811] (first compound max 10 µM, 7x7, partner max 1 µM) | -0.0041 | 0.212 | 0.47 | 0.757 | 0.306 | 0.227 | 0.824 | 0.424 | 0.237 | 0.495 | 0.185 | 0.704 | 0.308 | 0.243 | 0.389 | 0.363 | 0.831 | 0.993 | 0.875 | 0.276
6 | Cc1c2c(nn1C)CSCc1cc(n(C)n1)CSc1cc(c3ccccc3c1)OCCCc1c(C(=O)O)n(C)c3c-2c(Cl)ccc13 [AZD5991] + Cc1cc2ncnn2cc1Nc1ncc2c(n1)n(C1CCOCC1)c(=O)n2C [AZD7648] (first compound max 1 µM, 7x7, partner max 10 µM) | -0.0651 | 0.193 | 0.515 | 0.468 | 0.692 | 0.127 | 1 | 0.788 | 0.168 | 1 | 0.15 | 0.567 | 0.419 | 0.305 | 0.327 | 1 | 0.841 | 1 | 1 | 0.926
